For test [1], the system named is TP73 recruitment to the PUMA gene promoter. Put plainly: qChIP for BBC3 (PUMA) promoter occupancy by TP73. Format: cell-based. Particulars: MDA-MB-231 cells; 5 μM for 24 hours. How it is done: FIGS. 17A-C. […] (A) Cells were treated with 5 μM TAM for 24 hours. After 24 hours, BBC3 promoter occupancy by TP73 was determined using qChIP in MDA-MB-231 cells. (B) SK-BR-3 cells were transfected with si-NS or si-ESR2 #2 for 48 hours and treated with or without 5 μM TAM for 24 hours. After 72 hours, expression of TP53 target genes (CDKN1A and BBC3) was determined using qRT-PCR. (C) SK-BR-3 cells were transfected with si-NS or si-TP73 for 48 hours and treated with or without 5 μM TAM for 24 hours. After 72 hours, expression of TP53 target genes (CDKN1A and BBC3) was determined using qRT-PCR. Error bars are represented as mean SD of three independent experiments. All ‘p’ values were determined by two tailed student t-test. qRT-PCR=Quantitative real time polymerase chain reaction. si-NS=non-specific siRNA; si-ESR2 #2=ESR2 specific siRNA; si-TP73=TP73 specific siRNA; VEH=Vehicle; TAM=4-Hydroxytamoxifen.
Chromatin immunoprecipitation (ChIP) assay. […] Immunoprecipitated chromatin samples were analyzed through real-time q-PCR as stated above. A region downstream of CDKN1A/p21 promoter sequence was used as endogenous control for the relative quantitation of immunoprecipitated chromatin fragments (Details of the primers are provided in Table 1). The promoter occupancy by transcription factor (s) of interest was analyzed as qRT-PCR.

In test [2] the test system is MDA-MB-231 cells expressing mutant p53. Put plainly: Doxorubicin cell-killing IC50 in TNBC cells expressing mutant p53, with or without tamoxifen. Format: cell-based. Particulars: for IC50: Homo sapiens.

Where two headings read alike, the source gives them in different places.

As to 4-hydroxy tamoxifen, the “recruitment of TP73 to the PUMA gene promoter (qChIP)” value in test [1] is “enhanced”.

With `COc1cccc2c1C(=O)c1c(O)c3c(c(O)c1C2=O)C[C@@](O)(C(=O)CO)C[C@@H]3O[C@H]1C[C@H](N)[C@H](O)[C@H](C)O1` [doxorubicin], the IC50 in test [2] (MDA-MB-231, read-out: IC50 of doxorubicin with addition of tamoxifen) turned out to be 150 nM; in test [2] (read-out: IC50 (drug concentration required to kill 50% cells) of doxorubicin, MDA-MB-231 expressing mutant p53, doxorubicin alone) it was 1050 nM. Further, the “Decrease of doxorubicin IC50 on addition of tamoxifen” value in test [2] (MDA-MB-231 expressing mutant p53) is reported as “about 7 fold”.

Values taken from US12673032B2, “Exploiting estrogen receptor beta and TP53 interaction as a new therapeutic strategy for cancer” (Health Research, Inc., priority 2018, dated 2026).
